Assay results taken from US20220363662A1, “COMPOUNDS AS LXR AGONISTS” (Integral Biosciences Privated Limited, priority 2021, published 2022).

Each compound was assayed against T1, LXR beta (Homo sapiens, UniProt P55055) (assay: LXR beta agonist assay (Lanthascreen TR-FRET)). Settings: LXR beta-LBD 5 nM, read-out: LXR-β EC50.
T1 construct: 5 μL of 4×LXR beta-LBD was added to each well (final concentration 5 nM); purchased Thermofisher PV4658
T1 sequence (P55055 222-460 limits assumed): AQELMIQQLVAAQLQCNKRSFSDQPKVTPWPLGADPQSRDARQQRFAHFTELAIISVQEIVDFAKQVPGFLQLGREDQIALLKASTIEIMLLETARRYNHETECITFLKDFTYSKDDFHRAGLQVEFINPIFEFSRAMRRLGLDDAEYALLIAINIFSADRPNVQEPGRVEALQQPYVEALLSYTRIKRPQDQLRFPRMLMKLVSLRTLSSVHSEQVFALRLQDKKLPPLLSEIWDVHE
Assay type: biochemical
Procedure: EC50 values of compounds against LXR beta were determined at Integral BioSciences (India) using Lanthascreen TR-FRET (Thermofisher, Cat #PV4658). Assay was performed in a 20 μL final volume in a Black 384-well plate (Corning, Cat #4511). Dose response curve for the compounds were prepared in duplicates with starting concentration at 30 μM and a three-fold titration was performed. The reaction buffer consisted of TR-FRET Coregulator Buffer G. To the compound dilution, 5 μL of 4×LXR beta-LBD was added to each well (final concentration 5 nM). An equal volume (5 μL) containing 4×Fl-D22/Tb-anti GST antibody (final concentration 100 nM/10 nM) was added to initiate the enzyme reaction and the reaction was incubated for 60 min at 22° C. after which the plates were read using BioTek Plate reader for TR-FRET every hour up to 4 hours.
Analysis was done using the standard curve by non-linear regression, variable slope inhibitor curve fits (Graph-Pad Prism) and EC50's of compounds were determined wherever possible.

For `CN(C)C(=O)c1ccc(NC2CN(C3CCN(C(=O)[C@](O)(c4ccccc4)C(F)(F)F)CC3)C2)cc1Cl` (single isomer, unassigned) [Compound 1.9], which EC50 is on record?
The EC50 was > 30 µM.

How did the EC50 turn out when `CN(C)C(=O)c1ccc(NC2CN(C3CCN(C(=O)[C@](O)(c4ccccc4)C(F)(F)F)CC3)C2)cc1F` (single isomer, unassigned) [Compound 1.86] was run?
The EC50 was > 30 µM.

How did the EC50 turn out when `CN(C)C(=O)c1ccc(NC2CN(C3CCN(C(=O)[C@](O)(c4ccccc4)C(F)(F)F)CC3)C2)cc1F` (single isomer, unassigned) [Compound 1.87] was run?
The EC50 was > 30 µM.

How did the EC50 turn out when `CCN(CC)C(=O)c1ccc(NC2CN(C3CCN(C(=O)[C@@](O)(c4ccccc4)C(F)(F)F)CC3)C2)cc1Cl` (single isomer, unassigned) [Compound 1.96] was run?
Its EC50 is 4.57 µM.

For `CCN(CC)C(=O)c1ccc(NC2CN(C3CCN(C(=O)[C@](O)(c4ccccc4)C(F)(F)F)CC3)C2)cc1Cl` (single isomer, unassigned) [Compound 1.97], which EC50 is on record?
Its EC50 is 1.17 µM.

`O=C(c1ccc(NC2CN(C3CCN(C(=O)[C@@](O)(c4ccccc4)C(F)(F)F)CC3)C2)cc1Cl)N1CCCC1` (single isomer, unassigned) [Compound 1.99] was tested. Which EC50 did it give?
Its EC50 is 1.82 µM.

With `CC(=O)N1CCN(C(=O)c2ccc(NC3CN(C4CCN(C(=O)[C@@](O)(c5ccccc5)C(F)(F)F)CC4)C3)cc2Cl)CC1` (single isomer, unassigned) [Compound 1.105] as the compound, how does the EC50 read?
Its EC50 is 2.25 µM.

Which EC50 does the source give for `O=C(NCC(F)F)c1ccc(NC2CN(C3CCN(C(=O)[C@](O)(c4ccccc4)C(F)(F)F)CC3)C2)cc1Cl` (single isomer, unassigned) [Compound 1.106] here?
The EC50 was 2.71 µM.

Which EC50 does the source give for `O=C(NCC(F)F)c1ccc(NC2CN(C3CCN(C(=O)[C@@](O)(c4ccccc4)C(F)(F)F)CC3)C2)cc1Cl` (single isomer, unassigned) [Compound 1.107] here?
Its EC50 is 1.3 µM.

`O=C(c1ccc(NC2CN(C3CCN(C(=O)[C@](O)(c4ccccc4)C(F)(F)F)CC3)C2)cc1Cl)N1CCCCC1` (single isomer, unassigned) [Compound 1.108] was tested. Which EC50 did it give?
The EC50 was 1.57 µM.

`O=C(c1ccc(NC2CN(C3CCN(C(=O)[C@](O)(c4ccccc4)C(F)(F)F)CC3)C2)cc1Cl)N1CCCCC1` (single isomer, unassigned) [Compound 1.109] was tested. Which EC50 did it give?
The EC50 was 3.01 µM.

Which EC50 does the source give for `CN(C)C(=O)c1ccc(NC2CN(C3CCN(C(=O)[C@@](O)(c4ccc(F)cc4)C(F)(F)F)CC3)C2)cc1Cl` (single isomer, unassigned) [Compound 1.116] here?
The EC50 was 9.85 µM.

For `CN(C)C(=O)c1ccc(NC2CN(C3CCN(C(=O)[C@@](O)(c4cccc(Cl)c4)C(F)(F)F)CC3)C2)cc1Cl` (single isomer, unassigned) [Compound 1.118], which EC50 is on record?
The EC50 was 0.241 µM.

How did the EC50 turn out when `Cc1cccc([C@](O)(C(=O)N2CCC(N3CC(Nc4ccc(C(=O)N(C)C)c(Cl)c4)C3)CC2)C(F)(F)F)c1` (single isomer, unassigned) [Compound 1.121] was run?
The EC50 was 2.85 µM.

`CN(C)C(=O)c1ccc(NC2CN(C3CCN(S(=O)(=O)c4ccccc4Cl)CC3)C2)cc1Cl` [Compound 1.2, 2-chloro-4-(1-(1-(2-chlorophenylsulfonyl)piperidin-4-yl)azetidin-3-ylamino)-N,N-dimethylbenzamide] was tested. Which EC50 did it give?
The EC50 was 3.34 µM.

How did the EC50 turn out when `CN(C)C(=O)c1ccc(-c2nnc(C3CCN(S(=O)(=O)c4ccccc4Cl)CC3)s2)cc1Cl` [Compound 1.11, 2-chloro-4-(5-(1-(2-chlorophenylsulfonyl)piperidin-4-yl)-1,3,4-thiadiazol-2-yl)-N,N-dimethylbenzamide] was run?
Its EC50 is 3.09 µM.

How did the EC50 turn out when `CN(C)C(=O)c1ccc(NC2CN(C3CCN(S(=O)(=O)c4ccccc4C#N)CC3)C2)cc1Cl` [Compound 1.13, 2-chloro-4-(1-(1-(2-cyanophenylsulfonyl)piperidin-4-yl)azetidin-3-ylamino)-N,N-dimethylbenzamide] was run?
Its EC50 is 4.43 µM.

Which EC50 does the source give for `N#Cc1ccccc1S(=O)(=O)N1CCC(C2CCN(c3cc(Cl)c4c(=O)[nH]ccc4c3)CC2)CC1` [Compound 1.15, 2-(1′-(8-chloro-1-oxo-1,2-dihydroisoquinolin-6-yl)-4,4′-bipiperidin-1-ylsulfonyl)benzonitrile] here?
The EC50 was 2.74 µM.

`O=C(N1CCC(C2CCN(c3cc(Cl)c4c(=O)[nH]ccc4c3)CC2)CC1)C1(c2ccccc2)CCC1` [Compound 1.22, 8-chloro-6-(1′-(1-phenylcyclobutanecarbonyl)-[4,4′-bipiperidin]-1-yl)isoquinolin-1(2H)-one] was tested. Which EC50 did it give?
Its EC50 is 2.4 µM.

With `CC(C)(C(=O)N1CCC(C2CCN(c3cc(Cl)c4c(=O)[nH]ccc4c3)CC2)CC1)c1ccccc1` [Compound 1.24, 8-chloro-6-(1′-(2-methyl-2-phenylpropanoyl)-4,4′-bipiperidin-1-yl)isoquinolin-1(2H)-one] as the compound, how does the EC50 read?
Its EC50 is 2.48 µM.

Which EC50 does the source give for `CN(C)C(=O)c1ccc(-c2ccn(C3CCN(C(=O)C(O)(c4ccccc4)C(F)(F)F)CC3)c(=O)c2)cc1Cl` (stereo not drawn) [Compound 1.27, 2-chloro-N,N-dimethyl-4-(2-oxo-1-(1-(3,3,3-trifluoro-2-hydroxy-2-phenylpropanoyl)piperidin-4-yl)-1,2-dihydropyridin-4-yl)benzamide] here?
Its EC50 is > 30 µM.

Which EC50 does the source give for `CN(C)C(=O)c1ccc(N(C)C2CN(C3CCN(C(=O)C4(c5ccccc5)CCC4)CC3)C2)cc1Cl` [Compound 1.31, 2-chloro-N,N-dimethyl-4-(methyl(1-(1-(1-phenylcyclobutanecarbonyl)piperidin-4-yl)azetidin-3-yl)amino)benzamide] here?
Its EC50 is 3.23 µM.

`CN(C)C(=O)c1ccc(N(C)C2CN(C3CCN(C(=O)[C@](O)(c4ccccc4)C(F)(F)F)CC3)C2)cc1Cl` [Compound 1.32, (R)-2-chloro-N,N-dimethyl-4-(methyl(1-(1-(3,3,3-trifluoro-2-hydroxy-2-phenylpropanoyl)piperidin-4-yl)azetidin-3-yl)amino)benzamide] was tested. Which EC50 did it give?
The EC50 was 7.23 µM.

`CN(C)C(=O)c1ccc(NC2CN(C3CCN(C(=O)C4(c5ccc(Cl)cc5)CCC4)CC3)C2)cc1Cl` [Compound 1.33, 2-chloro-4-(1-(1-(1-(4-chlorophenyl)cyclobutanecarbonyl)piperidin-4-yl)azetidin-3-ylamino)-N,N-dimethylbenzamide] was tested. Which EC50 did it give?
The EC50 was 4.3 µM.

Which EC50 does the source give for `CN(C)C(=O)c1ccc(NC2CN(C3CCN(C(=O)C4(c5ccc(F)cc5)CCCC4)CC3)C2)cc1Cl` [Compound 1.34, 2-chloro-4-(1-(1-(1-(4-fluorophenyl)cyclopentanecarbonyl)piperidin-4-yl)azetidin-3-ylamino)-N,N-dimethylbenzamide] here?
The EC50 was 3.41 µM.

Which EC50 does the source give for `CN(C)C(=O)c1ccc(-c2nnc(C3=CCN(C(=O)C(C)(C)C)CC3)s2)cc1Cl` [Compound 1.59, 2-chloro-N,N-dimethyl-4-(5-(1-pivaloyl-1,2,3,6-tetrahydropyridin-4-yl)-1,3,4-thiadiazol-2-yl)benzamide] here?
The EC50 was 5.45 µM.

How did the EC50 turn out when `CN(C)C(=O)c1ccc(-c2nnc(C3=CCN(C(=O)C4CCC(F)(F)CC4)CC3)s2)cc1Cl` [Compound 1.60, 2-chloro-4-(5-(1-(4,4-difluorocyclohexanecarbonyl)-1,2,3,6-tetrahydropyridin-4-yl)-1,3,4-thiadiazol-2-yl)-N,N-dimethylbenzamide] was run?
Its EC50 is 1.51 µM.

`CN(C)C(=O)c1ccc(-c2nnc(C3=CCN(S(=O)(=O)c4cc(Cl)ccc4Cl)CC3)s2)cc1Cl` [Compound 1.61, 2-chloro-4-(5-(1-(2,5-dichlorophenylsulfonyl)-1,2,3,6-tetrahydropyridin-4-yl)-1,3,4-thiadiazol-2-yl)-N,N-dimethylbenzamide] was tested. Which EC50 did it give?
The EC50 was > 10 µM.

For `COc1ncc(Cl)cc1S(=O)(=O)N1CC=C(c2nnc(-c3ccc(C(=O)N(C)C)c(Cl)c3)s2)CC1` [Compound 1.62, 2-chloro-4-(5-(1-(5-chloro-2-methoxypyridin-3-ylsulfonyl)-1,2,3,6-tetrahydropyridin-4-yl)-1,3,4-thiadiazol-2-yl)-N,N-dimethylbenzamide], which EC50 is on record?
The EC50 was > 10 µM.

For `CN(C)C(=O)c1ccc(NC2CN(C3CCN(C(=O)C4CCC(F)(F)CC4)CC3)C2)cc1Cl` [Compound 1.63, 2-chloro-4-(1-(1-(4,4-dfluorocyclohexanecarbonyl)piperidin-4-yl)azetidin-3-ylamino)-N,N-dimethylbenzamide], which EC50 is on record?
Its EC50 is > 30 µM.

`COc1cccc(C2(C(=O)N3CC=C(c4nnc(-c5ccc(C(=O)N(C)C)c(Cl)c5)s4)CC3)CCCC2)c1` [Compound 1.64, 2-chloro-4-(5-(1-(1-(3-methoxyphenyl)cyclopentanecarbonyl)-1,2,3,6-tetrahydropyridin-4-yl)-1,3,4-thiadiazol-2-yl)-N,N-dimethylbenzamide] was tested. Which EC50 did it give?
Its EC50 is > 30 µM.

How did the EC50 turn out when `CN(C)C(=O)c1ccc(-c2nnc(C3=CCN(C(=O)C45CC6CC(CC(C6)C4)C5)CC3)s2)cc1Cl` [Compound 1.65, 4-{5-[1-(adamantane-1-carbonyl)-1,2,3,6-tetrahydropyridin-4-yl]-1,3,4-thiadiazol-2-yl}-2-chloro-N,N-dimethylbenzamide] was run?
Its EC50 is 3.96 µM.

With `CN(C)C(=O)c1ccc(NC2CN(C3CCN(C(=O)C45CC6CC(CC(C6)C4)C5)CC3)C2)cc1Cl` [Compound 1.66, 4-({1-[1-(adamantane-1-carbonyl)piperidin-4-yl]azetidin-3-yl}amino)-2-chloro-N,N-dimethylbenzamide] as the compound, how does the EC50 read?
The EC50 was > 20.4 µM.
